Tests used:
[1] = target: T1, Hsp70 ATPase (Homo sapiens, UniProt P0DMV8); experiment: Inhibition of Hsp70 ATPase activity (malachite green); format: biochemical; settings: 200 μM; repeated screening carried out twice; Hsp70/Hsp40, 1 mM ATP; read-out: Inhibitory rate (%) on activity of Hsp70 ATPase
T1 construct: made in house; host or cells: E. coli
Experimental: (1) Protein: Humanized Hsp70, Hsp40, expressed by E. coli.
(2) Sample to be tested: 26 compound solids with different colors and states. Positive drugs AZ (CAS:1054543-47-3) and VER 155008 (CAS: 1134156-31-2) were synthesized in the laboratory.
(4) ATPase Assay buffer: • 0.017% Triton X-100; • 100 mM Tris-HCl; • 20 mM KCl; • 6 mM MgCl2, pH 7.4.
1) 13.08 μl DnaK (0.15 mg/mL, 2.14 μM), 1.96 μl DnaJ (1 mg/mL, 25 μM) were dissolved in 7.96 μl Assay Buffer (0.017% Triton X-100, 100 mM Tris-HCl, 20 mM KCl, and 6 mM MgCl2, pH 7.4), and the resultant solution was added to each well of the 96 well plate;
2) to each well of the 96 well plate, 1 μL sample to be tested (5 mM) or DMSO (solvent) was added, and vortexed with a Vortex agitator for 10 min; and then standing at 37° C. for 30 min;
3) to each well, 1 μL 25 mM ATP was added, to trigger the enzymatic reaction; (in each well, the final reaction volume was 25 μL, the final concentration of DnaK was 1.12 μM, the final concentration of DnaJ was 1.96 μM, the final concentration of DMSO was 4%, the final concentration of Triton X-100 was 0.01%, the final concentration of ATP was 1 mM, and the final concentration of sample to be tested was 200 μM), the enzymatic reaction was carried out at 37° C. for 3 h;
4) 80 μL Malachite green staining solution was then added to each well, and was vortexed gently;
5) 10 μL of 34% citrate sodium was then added immediately, and vortexed gently, to stop the ATP hydrolysis not caused by ATPase;
6) the resultant mixture was mixed thoroughly at 37° C. for 15 min, and OD620 was measured.
The inhibitory rate of Hsp70 ATPase activity is calculated in accordance with the following formula: Inhibitory rate (%)=(DMSO well OD−Experimental well OD)/(DMSO well OD−Blank well OD)×100
Criteria for preliminary screening: during preliminary screening, an example compound is regarded as effective in inhibition as long as its inhibitory rate is above 20% for Hsp70 ATPase at 200 μM.

[2] = system: BT/Lap^R1.0; experiment: CDI of example compounds and Lapatinib (ATPlite cell survival); format: cell-based; settings: compound 5 μM + Lapatinib 1 μM, 72 h; secondary Lapatinib-resistant human breast cancer cells; CDI<1 synergistic
Experimental: (§1) Cells: (BT474 and SK-BR3 are Lapatinib-sensitive human breast cancer cell strains; BT/LapR and SK/LapR are secondary Lapatinib-resistant human breast cancer cell strains upon Lapatinib stimulation; MDA-MB-361 and MDA-MB-453 are natural Lapatinib-resistant human breast cancer cell strains. BT474, MDA-MB-361, SK-BR3 and MDA-MB-453 are from American Type Culture Collection (ATCC))
(§2) In a 100 mm culture dish full of adherent cells, digestion with 1 ml 0.25% pancreatin (GIBCO) was carried out at 37° C. for 5 min, and the reaction was stopped with 2 ml medium (containing 10% FBS, GIBCO). The cells were dispersed and collected. After cell count, the cells were diluted to a concentration of 1×10^5 cells/ml, and were seeded to a 96-well plate at 50 μl/well, 5000 cell/well, 60 wells in total, PBS instead of cells was added to the wells of the outmost circle, and the incubation was carried out at 37° C. for 24 h for adherence.
(§3) For the sample group, samples to be tested were diluted with DMSO to a final concentration of 5 μM; to control wells, the medium containing the same concentration of solvent corresponding to the compound was added, the concentrations of the compounds were identical in each well, 5 wells in parallel were set for each concentration, 25 μL/well, and 25 μL medium was added to each well (for the combination group, 25 μL Lapatinib was added to reach a final concentration of 1 μM). The incubation was carried out at 37° C. for 72 h.
(§4) To each well, 50 μL ATPlite kit substrate solution was added. The plate was under shaking for 3 min, and was then placed in dark for 10 min. The lysis supernatant was drawn at 100 μL/well, and placed in a luminescent plate. The incubated luminescent plate was placed in an iluminescence apparatus, and the iluminescent value was read.
(§5) Data Processing Cell survival rate (%)=Experimental group RLU/control group RLU×100%
(§6) Coefficient of drug interaction (CDI) is used to evaluate the interaction of two drugs, CDI is calculated in accordance with the following formula: CDI=AB/(A×B)×100%. The calculation is performed according to the number of live cells (luminescent value), if CDI<1, the two drugs have a synergistic effect; if CDI<0.7, the synergistic effect is very significant; if CDI=1, the effect of the two drugs in combination is the sum of the effects of the two drugs; if CDI>1, the two drugs have an antagonistic effect.

[3] = system: SK/Lap^R1.0; experiment: as above; format: cell-based; settings: compound 5 μM + Lapatinib 1 μM, 72 h; secondary Lapatinib-resistant human breast cancer cells; CDI<1 synergistic
Experimental: as §1, §2, §3, §4, §5, §6

[4] = system: SK-BR3; experiment: as above; format: cell-based; set-up: key: CDI = AB/(A×B); <1 synergistic; settings: compound 5 μM + Lapatinib 1 μM, 72 h; Lapatinib-sensitive human breast cancer cells; CDI<1 synergistic
Experimental: as §1, §2, §3, §4, §5, §6

[5] = system: BT474; experiment: as above; format: cell-based; set-up: key: CDI = AB/(A×B); <1 synergistic; settings: compound 5 μM + Lapatinib 1 μM, 72 h; Lapatinib-sensitive human breast cancer cells; CDI<1 synergistic, <0.7 very significant, >1 antagonistic
Experimental: as §1, §2, §3, §4, §5, §6

[6] = system: MDA-MB-361; experiment: as above; format: cell-based; set-up: key: CDI = AB/(A×B); <1 synergistic; settings: compound 5 μM + Lapatinib 1 μM, 72 h; natural Lapatinib-resistant human breast cancer cells; CDI<1 synergistic
Experimental: as §1, §2, §3, §4, §5, §6

[7] = system: MDA-MB-453; experiment: as above; format: cell-based; set-up: key: CDI = AB/(A×B); <1 synergistic; settings: compound 5 μM + Lapatinib 1 μM, 72 h; natural Lapatinib-resistant human breast cancer cells; CDI<1 synergistic
Experimental: as §1, §2, §3, §4, §5, §6

T1 sequence (P0DMV8 2-641 limits assumed): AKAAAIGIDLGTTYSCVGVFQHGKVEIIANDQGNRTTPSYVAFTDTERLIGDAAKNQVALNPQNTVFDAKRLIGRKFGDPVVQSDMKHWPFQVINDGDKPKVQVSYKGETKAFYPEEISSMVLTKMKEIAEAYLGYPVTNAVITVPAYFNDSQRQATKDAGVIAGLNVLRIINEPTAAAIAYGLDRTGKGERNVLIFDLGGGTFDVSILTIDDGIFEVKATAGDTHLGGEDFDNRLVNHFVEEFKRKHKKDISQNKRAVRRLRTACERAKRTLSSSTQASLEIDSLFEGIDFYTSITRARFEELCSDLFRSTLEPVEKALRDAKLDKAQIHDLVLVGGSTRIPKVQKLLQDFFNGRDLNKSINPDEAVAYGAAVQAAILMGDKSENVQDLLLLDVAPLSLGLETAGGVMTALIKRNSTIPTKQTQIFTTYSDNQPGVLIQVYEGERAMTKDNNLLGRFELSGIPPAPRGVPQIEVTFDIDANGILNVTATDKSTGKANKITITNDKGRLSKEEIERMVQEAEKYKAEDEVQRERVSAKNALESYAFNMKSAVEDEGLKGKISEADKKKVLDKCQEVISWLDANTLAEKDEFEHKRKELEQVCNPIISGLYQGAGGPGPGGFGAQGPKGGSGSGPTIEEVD

Row | SMILES | inhibition at 200 µM [1] | CDI of example compounds and Lapatinib, BT/Lap^R1.0 [2] | CDI of example compounds and Lapatinib, SK/Lap^R1.0 [3] | CDI of example compounds and Lapatinib, SK-BR3 [4] | CDI of example compounds and Lapatinib, BT474 [5] | CDI of example compounds and Lapatinib, MDA-MB-361 [6] | CDI of example compounds and Lapatinib, MDA-MB-453 [7]
1 | O=C(/C=C/c1ccccc1)NC(NC(=S)Nc1ccccn1)C1CC1 (stereo not drawn) [Example 37, (2E)-N-[cyclopropyl-(3-pyridin-2-ylthioureido)-methyl] cinnamamide] | 1.51% | 1.02 | 1.03 | 0.99 | 0.98 | 0.99 | 1.34
2 | CC(C)CC(NC(=O)/C=C/c1ccccc1)NC(=S)Nc1ccccc1 (stereo not drawn) [Example 38, (2E)-N-[3-methyl-1-(3-phenylthioureido)butyl] cinnamamide] | 2.51% | 0.93 | 0.93 | 1.16 | 0.86 | 1 | 1.21
3 | CC(C)(C)CC(NC(=O)/C=C/c1ccccc1)NC(=S)Nc1ccccc1 (stereo not drawn) [Example 39, (2E)-N-[3,3-dimethyl-1-(3-phenylthioureido)butyl] cinnamamide] | 18.4% | 1.19 | 0.95 | 1.2 | 0.79 | 0.92 | 1.2
4 | CC(C)(C)C(NC(=O)/C=C/c1ccccc1)NC(=S)Nc1ccccc1 (stereo not drawn) [Example 40, (2E)-N-[2,2-dimethyl-1-(3-phenylthioureido)propyl] cinnamamide] | 27.3% | 0.95 | 0.99 | 1.14 | 0.85 | 0.95 | 1.37
5 | O=C(/C=C/c1ccccc1)NC(NC(=S)Nc1ccccc1)C1CC1 (stereo not drawn) [Example 41] | 22.5% | 0.99 | 1.02 | 1.09 | 0.91 | 0.91 | 1.07
6 | CC(C)C(NC(=O)/C=C/c1ccccc1)NC(=S)Nc1ccccc1 (stereo not drawn) [Example 42, (2E)-N-[2-methyl-1-(3-phenylthioureido)propyl] cinnamamide] | -4.2% | 0.99 | 0.99 | 1.14 | 0.92 | 0.96 | 1.15
7 | CNC(=S)NC(CC(C)C)NC(=O)/C=C/c1cc(OC)c(OC)c(OC)c1 (stereo not drawn) [Example 43, (2E)-N-[3-methyl-1-(3-methylthioureido)butyl]-3-(3,4,5-trimethoxyphenyl) acrylamide] | 7.62% | 1 | 0.93 | 1 | 1.03 | 0.95 | 1.28
8 | COc1cc(/C=C/C(=O)NC(NC(=S)Nc2ccccc2C)C2CC2)cc(OC)c1OC (stereo not drawn) [Example 45, (2E)-N-[cyclopropyl-(3-o-methylphenylthioureido)-methyl]-3-(3,4,5-trimethoxyphenyl) acrylamide] | 19.3% | 0.79 | 1.04 | 1.05 | 1.59 | 0.93 | 0.98

Further lines, with some results ahead:

Row | inhibition at 200 µM [1] | SMILES | CDI of example compounds and Lapatinib, BT/Lap^R1.0 [2] | CDI of example compounds and Lapatinib, SK/Lap^R1.0 [3] | CDI of example compounds and Lapatinib, SK-BR3 [4] | CDI of example compounds and Lapatinib, BT474 [5] | CDI of example compounds and Lapatinib, MDA-MB-361 [6] | CDI of example compounds and Lapatinib, MDA-MB-453 [7]
9 | 47.1% | COc1cc(/C=C/C(=O)NC(CC(C)(C)C)NC(=S)Nc2cccnc2)cc(OC)c1OC (stereo not drawn) [Example 33, (2E)-N-[3,3-dimethyl-1-(3-pyridin-3-ylthioureido)butyl]-3-(3,4,5-trimethoxyphenyl) acrylamide] | 0.97 | 0.88 | 0.96 | 0.81 | 0.89 | 1.19
10 | 9.36% | COc1cc(/C=C/C(=O)NC(CC(C)(C)C)NC(=S)Nc2ccccn2)cc(OC)c1OC (stereo not drawn) [Example 34, (2E)-N-[3,3-dimethyl-1-(3-pyridin-2-ylthioureido)butyl]-3-(3,4,5-trimethoxyphenyl) acrylamide] | 1 | 0.85 | 0.98 | 0.98 | 0.87 | 1.41
11 | -6.13% | COc1cc(/C=C/C(=O)NC(NC(=S)Nc2ccccn2)C(C)C)cc(OC)c1OC (stereo not drawn) [Example 35, (2E)-N-[2-methyl-1-(3-pyridin-2-ylthioureido)propyl]-3-(3,4,5-trimethoxyphenyl) acrylamide] | 1.04 | 0.9 | 0.99 | 0.96 | 0.86 | 1.37
12 | 50.5% | COc1cc(/C=C/C(=O)NC(NC(=S)Nc2ccccc2C)C(C)(C)C)cc(OC)c1OC (stereo not drawn) [Example 44, (2E)-N-[2,2-dimethyl-1-(3-o-methylphenylthioureido)propyl]-3-(3,4,5-trimethoxyphenyl)acrylamide] | 0.93 | 0.98 | 0.96 | 0.94 | 0.93 | 1.12

Reference: patent publication US9718770B2, “Substituted thioureas as heat shock protein 70 inhibitors” (Institute of Pharmacology and Toxicology Academy of …, priority 2013, dated 2017)
